Patent US20230295571A1, “COMPOSITIONS AND METHODS FOR STEM CELL CHONDROGENESIS” (Washington University, priority 2020, published 2023)

Tests used:
[1] = tested on: hiPSC chondrogenic pellets; assay: scRNA-seq of hiPSC chondrogenic pellets with WNT inhibition; type: cell-based, human
Experimental: On the day of collection for bulk RNA-seq experiments, 3-4 pellets per experimental group were pooled together and washed once with phosphate-buffered saline (PBS), snap-frozen in 300 μl of Buffer RL (Norgen Biotek), and stored at −80° C. until processing for RNA extraction. At harvesting time points for scRNA-seq experiments, 6-8 pellets per experimental group were pooled and digested with 0.04% Type II collagenase solution in DMEM/F12 for 1 h. Cells were washed once with PBS, resuspended in standard freezing medium, and stored in liquid nitrogen until needed.
WNT-C59 and ML329 treatment for WNT and MITF inhibition. For WNT-C59 treatment for WNT inhibition during chondrogenesis, pellets were treated with either 10 ng ml^−1 TGF-β3 (control group) or a combination of 10 ng ml^−1 TGF-β3 and 1 μM WNT-C59 in a chondrogenic medium from d0 to d42 as appropriate. For WNT-C59 and ML329 treatment (ML, Axon Medchem, HY-101464) for WNT and MITF inhibition during chondrogenesis, pellets were treated with either 10 ng ml^−1 TGF-β3 (control group), a combination of 10 ng ml^−1 TGF-β3 and 1 μM ML, a combination of 10 ng ml^−1 TGF-β3 and 1 μM WNT-C59, or a combination of 10 ng ml^−1 TGF-β3, 1 μM ML and 1 μM WNT-C59 in chondrogenic medium from d0 to d42 as appropriate.
10× chromium platform scRNA-seq. Cells were thawed at 37° C. and resuspended in PBS with 0.04% bovine serum albumin at a concentration of 2000 cells per μl. Cell suspensions were submitted to the GTAC sequencing core at Washington University in St. Louis for library preparation and sequencing. In brief, 10,000 cells per sample were loaded on a Chromium Controller (10× Genomics) for single capture. Libraries were prepared using Single Cell 3′ Library & Gel Bead Kit v2 (#120237 10× Genomics) following the manufacture's instruction. A single cell emulsion (Gel Bead-In-EMulsions, GEMs) is created by making barcoded cDNA unique to each individual emulsion. A recovery agent was added to break GEM and cDNA was then amplified. A library is produced via end repair, dA-tailing, adapter ligation, post-ligation cleanup with SPRIselect, and sample index PCR. The quality and concentration of the amplified cDNA were evaluated by Bioanalyzer (Agilent 2100) on a High Sensitivity DNA chip (Agilent, #5065-4401). The only cDNA with an average library size of 260-620 bp were used for sequencing. Sequencing was performed by IIlumina HiSeq2500 with the following read length: 26 bp for Read1, 8 bp for i7 Index, and 98 bp for Read2. We generally acquired ˜180 million reads per library (sample). A species mixing experiment (mouse adipose stem cells and human iPSCs, 1:1 mixture) was also performed prior to running on the actual sample to ensure good quality of single-cell capture (i.e., cell doublet rate<5%).
Preprocessing of scRNA-seq data. Paired-end sequencing reads were processed by Cell Ranger (10× Genomics software, version 2.0.0). Reads were aligned to the GRCh38 (version 90) for genome annotation, demultiplexing, barcode filtering, and gene quantification. Cell Ranger also removes any barcode that has less than 10% of the 99th percentile of total unique molecular identifiers (UMI) counts per barcode as these barcodes are considered to be associated with empty droplets. After this quality control, gene barcode matrices for each sample were generated by counting the number of UMIs for a given gene (as a row) in the individual cell (as a column). For each sample, ˜1300-2500 cells were captured.
Unsupervised clustering analysis and annotation. To assess the difference in the composition of cell populations, global unsupervised clustering analysis was performed for our scRNA-seq datasets. First, gene barcode matrices were input into the Seurat R package (version 2.4). Then, the low-quality cells with less than 200 or more than 7000 detected genes or if their mitochondrial gene content was more than 5% were removed. […]

[2] = tested on: WNT2B, WNT3A, WNT4, WNT5B, WNT7B; assay: Western blots of WNT proteins in d28 pellets; type: cell-based, human
Experimental: Western blots. To examine the effect of WNT-C59 on WNT inhibition in the pellets at protein levels, Western blot analysis was performed on d28 pellets with or without WNT-C59 treatments. Six to eight pellets per experimental group were pooled and digested with 0.04% Type II collagenase solution in DMEM/F12 for 1 h. Cells were washed once with PBS and lysed in RIPA buffer (Cell Signaling Technology, #9806S) with protease inhibitor (ThermoFisher, #87786) and phosphatase inhibitor (Santa Cruz Biotechnology, #sc-45044). Protein concentration was measured using the BCA Assay (Pierce). Ten micrograms of proteins for each well were separated on 10% sodium dodecyl sulfate-polyacrylamide gel electrophoresis gels with prestained molecular weight markers (Bio-Rad, 161-0374) and transferred to a polyvinylidene fluoride (PVDF) membrane. The PVDF membrane blots were incubated overnight at 4° C. with the following primary antibodies: anti-WNT2B (1:350, Abcam, ab178418), anti-WNT3A (1:1000, Abcam, ab81614), anti-WNT4 (1:500, Abcam, ab91226), anti-WNTSB (1:500, Abcam, ab93134), anti-WNT7B (1:2000, Abcam, ab155313) and anti-GAPDH (1:30000, Proteintech 60004-1-Ig) for loading control, respectively. […] Immunoblots were imaged and analyzed using the iBright FL1000 Imaging System (Thermo Fisher). […]

[3] = trajectory vs TGF-β3-treated pellets

Cc1cc(-c2ccc(CC(=O)Nc3ccc(-c4cccnc4)cc3)cc2)ccn1 [WNT-C59]
neural cells and melanocytes in pellets ([1]; WNT-C59-treated pellets d7-d42): significantly decreased | percentage of BMP4-expressing cells ([1]; d14, all clusters except ISG15/IFI6/MX1+ chondrocytes): decreased percentage | percentage of GDF5 and BMPR1B expressing cells ([1]; d14, all clusters vs TGF-β3-treated): remarkably increased percentage | percentage of cells expressing BMPR2 ([1]; d14, several chondrocyte subpopulations): decreased | expression of most WNTs ([1]; d14 and d28 pellets, particularly proliferative cells): decreased expression | FRZB expression in chondrocyte population ([1]; d14 pellets): upregulated | ID2 (neurogenic marker) in proliferative cells ([1]; d14 pellets): decreased | PRG4 in mesenchymal cells ([1]; d14 pellets): increased | mesenchyme and chondrocytes content ([1]; d14 pellets vs TGF-β3 only): more | IFI6 and ISG15 (mature-hypertrophic chondrocyte markers) ([1]; d28 pellets): downregulated | expression of ACAN and COMP ([1]; d28 pellets vs standard-treated): increased | chondrogenic markers [1, 3]: enriched expression | neurogenic markers [1, 3]: little, if any | ACAN expression in pseudotime ([1]; vs TGF-β3 alone): earlier induction | COL2A1 and SOX9 expression in pseudotime ([1]; vs TGF-β3 alone): higher levels | SOX2 expression in pseudotime ([1]; vs TGF-β3 alone): earlier decrease | WNT5B protein [2]: only moderately inhibited | protein levels of WNT2B, WNT3A, WNT4, and WNT7B [2]: decreased
